In patent US20240409585A1, “MACROCYCLIC IMMUNOMODULATORS” (priority 2021, published 2024) one finds IC50 data, which are given here for 15 compounds.

One may read the IC50 as the concentration at which inhibition is half-maximal.

Bridge positions count the residues as written; N and C are the ends. Square brackets hold non-standard residues; d marks the D form. Peptide text beside a SMILES is read from it. * marks the point of attachment. ξ: configuration not given here. Ala(1H-tetrazol-5-yl) = N[C@@H](Cc1nnn[nH]1)C(=O)O; Phe(4-COOH) = N[C@@H](Cc1ccc(C(=O)O)cc1)C(=O)O; Bip = N[C@@H](Cc1ccc(-c2ccccc2)cc1)C(=O)O; NMeW = CN[C@@H](Cc1c[nH]c2ccccc12)C(=O)O; Phe(3-Cl) = N[C@@H](Cc1cccc(Cl)c1)C(=O)O; Phe(3-Me) = Cc1cccc(C[C@H](N)C(=O)O)c1; h4Pal = N[C@@H](CCc1ccncc1)C(=O)O; aIle = CC[C@@H](C)[C@H](N)C(=O)O; Cha = N[C@@H](CC1CCCCC1)C(=O)O; Cit = NC(=O)NCCC[C@H](N)C(=O)O; dNMeNle = CCCC[C@@H](NC)C(=O)O; Carboxymethyl = O=C(O)C*; NMeA = CN[C@@H](C)C(=O)O; Orn = NCCC[C@H](N)C(=O)O; Dab = NCC[C@H](N)C(=O)O; Dap = NC[C@H](N)C(=O)O; ξV = CC(C)C(N)C(=O)O

The assay has as its target T1, PE-labeled human PD-L1-Ig binding to Jurkat cell line over-expressing human PD-1 (Jurkat-PD-1) (Homo sapiens, UniProt Q15116).
T1 construct: expressed in transfected cells; host or cells: Jurkat
In words: Jurkat-PD-1 Cell Binding High-Content Screening Assay (CBA): Method 1. As to conditions: Jurkat-hPD-1 cells, PE-labeled PD-L1-Ig 20 nM final; read-out: Jurkat HPDL1 PD1 IC50 (uM) (Method 1).

T1 sequence (Q15116 25-288): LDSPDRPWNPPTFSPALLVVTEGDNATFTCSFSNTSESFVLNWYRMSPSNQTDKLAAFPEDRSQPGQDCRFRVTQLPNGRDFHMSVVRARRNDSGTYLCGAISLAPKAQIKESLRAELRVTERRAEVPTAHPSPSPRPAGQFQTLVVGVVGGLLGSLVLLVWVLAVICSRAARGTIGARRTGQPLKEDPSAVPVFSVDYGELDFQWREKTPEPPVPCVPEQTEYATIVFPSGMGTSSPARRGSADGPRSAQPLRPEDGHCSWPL

Consider `CC(=O)NCCCC[C@@H]1NC(=O)[C@H](C(C)C)NC(=O)[C@H](CC2CCCCC2)NC(=O)[C@H](CCN)NC(=O)[C@@H](CC(C)C)NC(=O)[C@H](C)N(C)C(=O)[C@H](CCC(N)=O)NC(=O)[C@H](Cc2ccc(-c3ccccc3)cc2)NC(=O)[C@H](C(C)C)NC(=O)[C@H](Cc2cccc(C)c2)NC(=O)[C@H](CC(=O)O)NC(=O)[C@H](Cc2ccc(OCC(=O)O)cc2)NC(=O)[C@H](Cc2ccc(OCC(=O)O)cc2)NC(=O)CSC[C@@H](C(=O)N[C@@H](CCN)C(N)=O)NC1=O` [Compound 2129] ({CH2CO}-Y(Carboxymethyl)Y(Carboxymethyl)D[Phe(3-Me)]V[Bip]Q[NMeA][dL][Dab][Cha]VK(Ac)C[Dab]-NH2; thioether N-14), for which the IC50 was determined as 0.01 µM.

Turning to `CC[C@@H](C)[C@@H]1NC(=O)[C@H](Cc2ccc(-c3ccccc3)cc2)NC(=O)[C@H](CC(C)C)NC(=O)[C@H](Cc2c[nH]c3ccccc23)NC(=O)[C@H](CC(=O)O)NC(=O)[C@H](Cc2ccc(C(=O)O)cc2)NC(=O)[C@H](Cc2ccc(OCC(=O)O)cc2)NC(=O)CSC[C@@H](C(=O)N[C@@H](CCCCN)C(N)=O)NC(=O)[C@H](CN)NC(=O)C(C(C)C)NC(=O)[C@H](CC(C)C)NC(=O)[C@H](CC(N)=O)NC(=O)[C@@H](CC(C)C)NC(=O)[C@H](C)N(C)C1=O` (stereo partly drawn) [Compound 2108] ({CH2CO}-Y(Carboxymethyl)[Phe(4-COOH)]DWL[Bip][aIle][NMeA][dL]NL[ξV][Dap]CK-NH2; thioether N-14), the IC50 was found to be 0.11 µM.

In the case of `CC(C)C[C@@H]1NC(=O)[C@H](CCN)NC(=O)[C@@H](CC(C)C)NC(=O)[C@H](C)N(C)C(=O)[C@H](CCCNC(=N)N)NC(=O)[C@H](Cc2ccc(-c3ccccc3)cc2)NC(=O)[C@H](C(C)C)NC(=O)[C@H](Cc2c[nH]c3ccccc23)NC(=O)[C@H](CC(=O)O)NC(=O)[C@H](Cc2cccc(Cl)c2)NC(=O)[C@H](CN)NC(=O)CSC[C@@H](C(=O)N[C@@H](C)C(N)=O)NC(=O)[C@H]([C@@H](C)O)NC(=O)[C@H](C(C)C)NC1=O` [Compound 1445] ({CH2CO}-[Dap][Phe(3-Cl)]DWV[Bip]R[NMeA][dL][Dab]LVTCA-NH2; thioether N-14), the IC50 was found to be 0.11 µM.

For `CC(C)C[C@@H]1NC(=O)[C@H](CCN)NC(=O)[C@@H](CC(C)C)NC(=O)[C@H](C)N(C)C(=O)[C@H](CCCN)NC(=O)[C@H](Cc2ccc(-c3ccccc3)cc2)NC(=O)[C@H](C(C)C)NC(=O)[C@H](Cc2c[nH]c3ccccc23)NC(=O)[C@H](CC(=O)O)NC(=O)[C@H](Cc2ccc(OCC(=O)O)cc2)NC(=O)[C@H](CC(N)=O)NC(=O)CSC[C@@H](C(=O)N[C@@H](C)C(N)=O)NC(=O)[C@H]([C@@H](C)O)NC(=O)[C@H](C(C)C)NC1=O` [Compound 1387] ({CH2CO}-NY(Carboxymethyl)DWV[Bip][Orn][NMeA][dL][Dab]LVTCA-NH2; thioether N-14), the IC50 stood at 0.03 µM.

As to `CC[C@@H](C)[C@@H]1NC(=O)[C@H](Cc2ccc(-c3ccccc3)cc2)NC(=O)[C@H](CC(C)C)NC(=O)[C@H](Cc2c[nH]c3ccccc23)NC(=O)[C@H](CC(=O)O)NC(=O)[C@H](Cc2ccc(C(=O)O)cc2)NC(=O)[C@H](Cc2ccc(OCC(=O)O)cc2)NC(=O)CSC[C@@H](C(=O)N[C@@H](CCCCN)C(N)=O)NC(=O)[C@H](CO)NC(=O)C(C(C)C)NC(=O)[C@H](CC(C)C)NC(=O)[C@H](CC(N)=O)NC(=O)[C@@H](CC(C)C)NC(=O)[C@H](C)N(C)C1=O` (stereo partly drawn) [Compound 2100] ({CH2CO}-Y(Carboxymethyl)[Phe(4-COOH)]DWL[Bip][aIle][NMeA][dL]NL[ξV]SCK-NH2; thioether N-14), the IC50 came to 0.03 µM.

As for `CC(C)C[C@@H]1NC(=O)[C@H](CCCNC(=N)N)NC(=O)[C@@H](CC(C)C)NC(=O)[C@H](C)N(C)C(=O)[C@H](CCCNC(=N)N)NC(=O)[C@H](Cc2ccc(-c3ccccc3)cc2)NC(=O)[C@H](C(C)C)NC(=O)[C@H](Cc2c[nH]c3ccccc23)NC(=O)[C@H](CC(=O)O)NC(=O)[C@H](CCc2ccncc2)NC(=O)[C@H](Cc2ccccc2)NC(=O)CSC[C@@H](C(=O)N[C@@H](C)C(N)=O)NC(=O)[C@H]([C@@H](C)O)NC(=O)[C@H](C(C)C)NC1=O` [Compound 1084] ({CH2CO}-F[h4Pal]DWV[Bip]R[NMeA][dL]RLVTCA-NH2; thioether N-14), the IC50 came to 0.09 µM.

In the case of `CC(C)C[C@@H]1NC(=O)[C@H](CCCNC(=N)N)NC(=O)[C@@H](Cc2ccccc2)NC(=O)[C@H](C)N(C)C(=O)[C@H](CCCNC(=N)N)NC(=O)[C@H](Cc2ccc(-c3ccccc3)cc2)NC(=O)[C@H](C(C)C)NC(=O)[C@H](Cc2c[nH]c3ccccc23)NC(=O)[C@H](CC(=O)O)NC(=O)[C@H](Cc2ccc(O)cc2)NC(=O)[C@H](CCC(N)=O)NC(=O)CSC[C@@H](C(=O)N[C@@H](C)C(N)=O)NC(=O)[C@H](CO)NC(=O)[C@H](C(C)C)NC1=O` [Compound 1043] ({CH2CO}-QYDWV[Bip]R[NMeA][dF]RLVSCA-NH2; thioether N-14), the IC50 was 0.17 µM.

Take `Cc1cccc(C[C@@H]2NC(=O)[C@H](CC(=O)O)NC(=O)[C@H](Cc3ccc(OCC(=O)O)cc3)NC(=O)[C@H](Cc3ccc(OCC(=O)O)cc3)NC(=O)CSC[C@@H](C(=O)N[C@@H](C)C(N)=O)NC(=O)[C@H](CO)NC(=O)[C@H](C(C)C)NC(=O)[C@H](CC(C)C)NC(=O)[C@H](CC(N)=O)NC(=O)[C@@H](C)NC(=O)[C@H](C)N(C)C(=O)[C@H](C(C)C)NC(=O)[C@H](Cc3ccc(-c4ccccc4)cc3)NC(=O)[C@H](CC(C)C)NC2=O)c1` [Compound 1580] ({CH2CO}-Y(Carboxymethyl)Y(Carboxymethyl)D[Phe(3-Me)]L[Bip]V[NMeA][dA]NLVSCA-NH2; thioether N-14): the IC50 came out at 0.01 µM.

On to `CC(C)C[C@@H]1NC(=O)[C@H](Cc2c[nH]c3ccccc23)NC(=O)[C@H](Cc2nn[nH]n2)NC(=O)[C@H](Cc2ccc(O)cc2)NC(=O)[C@H](Cc2ccccc2)NC(=O)CSC[C@@H](C(=O)N[C@@H](C)C(N)=O)NC(=O)[C@H](CO)NC(=O)[C@H](C(C)C)NC(=O)[C@H](CC(C)C)NC(=O)[C@H](CC(N)=O)NC(=O)[C@@H](CC(C)C)NC(=O)[C@H](C)N(C)C(=O)[C@H](C(C)C)NC(=O)[C@H](Cc2ccc(-c3ccccc3)cc2)NC1=O` [Compound 1541] ({CH2CO}-FY[Ala(1H-tetrazol-5-yl)]WL[Bip]V[NMeA][dL]NLVSCA-NH2; thioether N-14), for which the IC50 was determined as 0.02 µM.

With `CC(C)C[C@@H]1NC(=O)[C@H](CCN)NC(=O)[C@@H](CC(C)C)NC(=O)[C@H](C)N(C)C(=O)[C@H](CCCNC(=N)N)NC(=O)[C@H](Cc2ccc(-c3ccccc3)cc2)NC(=O)[C@H](C(C)C)NC(=O)[C@H](Cc2c[nH]c3ccccc23)NC(=O)[C@H](CC(=O)O)NC(=O)[C@H](Cc2ccc(C(=O)O)cc2)NC(=O)[C@H](CC(N)=O)NC(=O)CSC[C@@H](C(=O)N[C@@H](C)C(N)=O)NC(=O)[C@H]([C@@H](C)O)NC(=O)[C@H](C(C)C)NC1=O` [Compound 1452] ({CH2CO}-N[Phe(4-COOH)]DWV[Bip]R[NMeA][dL][Dab]LVTCA-NH2; thioether N-14), the IC50 was determined as 0.04 µM.

Consider `CCCC[C@@H]1C(=O)N[C@@H](Cc2ccc(OCC(=O)O)cc2)C(=O)N[C@@H](CC(=O)O)C(=O)N[C@@H](Cc2cccc(C)c2)C(=O)N[C@@H](Cc2ccc(OCC(=O)O)cc2)C(=O)N[C@@H](Cc2ccc(-c3ccccc3)cc2)C(=O)N[C@@H](Cc2ccc(OCC(=O)O)cc2)C(=O)N(C)[C@@H](C)C(=O)N[C@H](CC(C)C)C(=O)N[C@@H](CCN)C(=O)N[C@@H](CC2CCCCC2)C(=O)N[C@@H](C(C)C)C(=O)N[C@@H](CO)C(=O)N[C@H](C(=O)N[C@@H](CCN)C(N)=O)CSCC(=O)N1C` [Compound 1859] ({CH2CO}-[dNMeNle]Y(Carboxymethyl)D[Phe(3-Me)]Y(Carboxymethyl)[Bip]Y(Carboxymethyl)[NMeA][dL][Dab][Cha]VSC[Dab]-NH2; thioether N-14), for which the IC50 was found to be 0.05 µM.

Regarding `CC(C)C[C@@H]1NC(=O)[C@H](CCN)NC(=O)[C@@H](CC(C)C)NC(=O)[C@H](Cc2c[nH]c3ccccc23)N(C)C(=O)[C@H](C(C)C)NC(=O)[C@H](Cc2ccc(-c3ccccc3)cc2)NC(=O)[C@H](C(C)C)NC(=O)[C@H](Cc2c[nH]c3ccccc23)NC(=O)[C@H](CC(=O)O)NC(=O)[C@H](Cc2ccc(O)cc2)NC(=O)[C@H](CC(N)=O)NC(=O)CSC[C@@H](C(=O)N[C@@H](C)C(N)=O)NC(=O)[C@H]([C@@H](C)O)NC(=O)[C@H](C(C)C)NC1=O` [Compound 1368] ({CH2CO}-NYDWV[Bip]V[NMeW][dL][Dab]LVTCA-NH2; thioether N-14), the 50% inhibitory concentration (IC50) is 0.13 µM.

Regarding `CC(C)C[C@H]1NC(=O)[C@H](C)N(C)C(=O)[C@H](CCCNC(N)=O)NC(=O)[C@H](Cc2ccc(-c3ccccc3)cc2)NC(=O)[C@H](C(C)C)NC(=O)[C@H](Cc2c[nH]c3ccccc23)NC(=O)[C@H](CC(=O)O)NC(=O)[C@H](Cc2ccc(O)cc2)NC(=O)[C@H](CC(N)=O)NC(=O)CSC[C@@H](C(=O)N[C@@H](C)C(N)=O)NC(=O)[C@H]([C@@H](C)O)NC(=O)[C@H](C(C)C)NC(=O)[C@H](CC2CCCCC2)NC(=O)[C@H](CCCNC(=N)N)NC1=O` [Compound 1304] ({CH2CO}-NYDWV[Bip][Cit][NMeA][dL]R[Cha]VTCA-NH2; thioether N-14), the half-maximal inhibitory concentration (IC50) stood at 0.02 µM.

With `CC(C)C[C@@H]1NC(=O)[C@H](Cc2c[nH]c3ccccc23)NC(=O)[C@H](CC(N)=O)NC(=O)[C@H](Cc2ccc(O)cc2)NC(=O)[C@H](Cc2ccccc2)NC(=O)CSC[C@@H](C(=O)N[C@@H](C)C(N)=O)NC(=O)[C@H](CO)NC(=O)[C@H](C(C)C)NC(=O)[C@H](CC(C)C)NC(=O)[C@H](CC(N)=O)NC(=O)[C@@H](C)NC(=O)[C@H](C)N(C)C(=O)[C@H](C(C)C)NC(=O)[C@H](Cc2ccc(-c3ccccc3)cc2)NC1=O` [Compound 1791] ({CH2CO}-FYNWL[Bip]V[NMeA][dA]NLVSCA-NH2; thioether N-14), the IC50 is 0.13 µM.

In the case of `CC[C@H](C)[C@@H]1NC(=O)[C@H](Cc2ccc(-c3ccccc3)cc2)NC(=O)[C@H](CC(C)C)NC(=O)[C@H](Cc2c[nH]c3ccccc23)NC(=O)[C@H](CC(=O)O)NC(=O)[C@H](Cc2ccc(O)cc2)NC(=O)[C@H](Cc2ccccc2)NC(=O)CSC[C@@H](C(=O)NCC(N)=O)NC(=O)[C@H](CO)NC(=O)[C@H](C(C)C)NC(=O)[C@H](CC(C)C)NC(=O)[C@H](CCN)NC(=O)[C@@H](CC(C)C)NC(=O)[C@H](C)N(C)C1=O` [Compound 1511] ({CH2CO}-FYDWL[Bip]I[NMeA][dL][Dab]LVSCG-NH2; thioether N-14), the IC50 was determined as 0.01 µM.
